Measurements published in patent publication US12365696B2, “Small-molecule focal adhesion kinase (FAK) inhibitors” (DANA-FARBER CANCER INSTITUTE, INC., priority 2019, dated 2025).
Like-named read-outs stand apart in the source and are kept apart here.

Legend:
Test in all cases: KINOMEscan
Format in all cases: binding
ABL1-nonphosphorylated = ABL1-nonphosphorylated (Homo sapiens (Human), UniProt P00519); conditions: 10000 nM, read-out: Percent Control
ADCK4 = ADCK4 (Homo sapiens (Human), UniProt Q96D53); conditions: ADCK4, 10000 nM; read-out: Percent Control
AKT2 = AKT2 (Homo sapiens (Human), UniProt P31751); conditions: AKT2, 10000 nM; read-out: Percent Control
BRSK2 = BRSK2 (Homo sapiens (Human), UniProt Q8IWQ3); conditions: BRSK2, 10000 nM; read-out: Percent Control
BRSK2, sequence (Q8IWQ3 whole entry): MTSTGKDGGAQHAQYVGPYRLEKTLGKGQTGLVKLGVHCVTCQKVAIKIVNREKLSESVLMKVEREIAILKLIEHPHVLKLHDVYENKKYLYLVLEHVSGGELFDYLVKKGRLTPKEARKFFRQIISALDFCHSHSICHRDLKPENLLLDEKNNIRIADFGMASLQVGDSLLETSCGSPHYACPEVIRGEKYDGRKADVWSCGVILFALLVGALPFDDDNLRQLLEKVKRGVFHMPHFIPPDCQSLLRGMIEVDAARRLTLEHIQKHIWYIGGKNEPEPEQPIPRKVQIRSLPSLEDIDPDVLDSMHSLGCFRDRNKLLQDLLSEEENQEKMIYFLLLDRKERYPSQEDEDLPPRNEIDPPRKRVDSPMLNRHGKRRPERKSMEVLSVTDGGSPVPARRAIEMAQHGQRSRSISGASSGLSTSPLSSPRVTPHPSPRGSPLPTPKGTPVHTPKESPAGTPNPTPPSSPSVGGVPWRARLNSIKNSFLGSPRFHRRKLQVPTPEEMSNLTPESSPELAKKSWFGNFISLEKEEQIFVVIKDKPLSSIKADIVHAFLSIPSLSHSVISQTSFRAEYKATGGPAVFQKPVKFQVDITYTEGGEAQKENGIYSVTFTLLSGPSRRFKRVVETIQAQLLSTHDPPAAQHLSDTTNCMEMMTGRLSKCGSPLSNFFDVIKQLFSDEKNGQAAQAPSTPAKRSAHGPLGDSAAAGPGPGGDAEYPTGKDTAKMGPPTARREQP

CLK1 = CLK1 (Homo sapiens (Human), UniProt P49759); conditions: CLK1, 10000 nM; read-out: Percent Control
CSNK1G2 = CSNK1G2 (Homo sapiens (Human), UniProt P78368); conditions: CSNK1G2, 10000 nM; read-out: Percent Control
CSNK1G2, sequence (P78368 whole entry): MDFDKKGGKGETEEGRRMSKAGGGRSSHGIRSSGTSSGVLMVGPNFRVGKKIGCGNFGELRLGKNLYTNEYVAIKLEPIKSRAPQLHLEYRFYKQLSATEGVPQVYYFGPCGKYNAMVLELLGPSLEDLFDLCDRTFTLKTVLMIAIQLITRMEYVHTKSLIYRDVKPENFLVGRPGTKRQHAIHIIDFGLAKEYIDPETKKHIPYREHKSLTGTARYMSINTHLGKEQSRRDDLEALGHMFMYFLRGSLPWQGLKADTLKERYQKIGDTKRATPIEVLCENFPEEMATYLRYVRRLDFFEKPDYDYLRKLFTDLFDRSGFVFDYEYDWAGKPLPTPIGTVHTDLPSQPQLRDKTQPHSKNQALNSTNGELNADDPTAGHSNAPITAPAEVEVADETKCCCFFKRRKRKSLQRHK

[1] = biological target: EGFR(L747-S752del, P753S) (Homo sapiens (Human), UniProt P00533, DEL747-752/P753S); conditions: 10000 nM, read-out: Percent Control
EGFR(L747-S752del, P753S), sequence (P00533 other isoform, or with tags, fused parts or gaps P753S): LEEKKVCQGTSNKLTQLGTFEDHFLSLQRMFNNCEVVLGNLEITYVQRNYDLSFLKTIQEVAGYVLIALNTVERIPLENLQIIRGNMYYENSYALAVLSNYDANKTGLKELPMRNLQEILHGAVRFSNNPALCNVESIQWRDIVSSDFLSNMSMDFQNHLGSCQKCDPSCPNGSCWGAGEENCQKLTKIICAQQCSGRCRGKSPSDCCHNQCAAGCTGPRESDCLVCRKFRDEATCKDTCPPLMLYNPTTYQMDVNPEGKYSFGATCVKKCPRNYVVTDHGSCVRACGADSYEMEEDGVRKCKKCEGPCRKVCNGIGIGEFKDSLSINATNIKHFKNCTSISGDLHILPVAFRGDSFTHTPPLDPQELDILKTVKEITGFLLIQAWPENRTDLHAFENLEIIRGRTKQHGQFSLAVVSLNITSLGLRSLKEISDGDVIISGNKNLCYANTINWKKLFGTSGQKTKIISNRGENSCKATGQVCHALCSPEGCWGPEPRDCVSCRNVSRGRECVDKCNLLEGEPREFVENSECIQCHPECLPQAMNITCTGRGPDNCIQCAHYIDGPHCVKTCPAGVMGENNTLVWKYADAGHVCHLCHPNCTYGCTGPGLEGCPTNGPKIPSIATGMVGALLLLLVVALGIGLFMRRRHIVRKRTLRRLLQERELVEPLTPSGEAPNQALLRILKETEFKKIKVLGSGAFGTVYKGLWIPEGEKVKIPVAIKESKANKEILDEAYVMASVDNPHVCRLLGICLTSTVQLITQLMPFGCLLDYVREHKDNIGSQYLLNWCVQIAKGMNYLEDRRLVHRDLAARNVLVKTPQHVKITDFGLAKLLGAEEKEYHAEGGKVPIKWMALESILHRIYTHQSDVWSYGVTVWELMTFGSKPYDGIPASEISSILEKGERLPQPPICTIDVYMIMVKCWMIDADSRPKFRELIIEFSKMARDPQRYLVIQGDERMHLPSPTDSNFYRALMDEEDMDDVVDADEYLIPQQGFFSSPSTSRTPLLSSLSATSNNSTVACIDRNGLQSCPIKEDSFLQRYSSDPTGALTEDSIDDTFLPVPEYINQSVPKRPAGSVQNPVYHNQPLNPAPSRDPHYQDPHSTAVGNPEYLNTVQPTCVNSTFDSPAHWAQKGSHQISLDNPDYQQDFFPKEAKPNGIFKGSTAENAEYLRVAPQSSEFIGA

GSK3B = GSK3B (Homo sapiens (Human), UniProt P49841); conditions: 10000 nM, read-out: Percent Control
HUNK = HUNK (Homo sapiens (Human), UniProt P57058); conditions: 10000 nM, read-out: Percent Control
HUNK, sequence (P57058 whole entry): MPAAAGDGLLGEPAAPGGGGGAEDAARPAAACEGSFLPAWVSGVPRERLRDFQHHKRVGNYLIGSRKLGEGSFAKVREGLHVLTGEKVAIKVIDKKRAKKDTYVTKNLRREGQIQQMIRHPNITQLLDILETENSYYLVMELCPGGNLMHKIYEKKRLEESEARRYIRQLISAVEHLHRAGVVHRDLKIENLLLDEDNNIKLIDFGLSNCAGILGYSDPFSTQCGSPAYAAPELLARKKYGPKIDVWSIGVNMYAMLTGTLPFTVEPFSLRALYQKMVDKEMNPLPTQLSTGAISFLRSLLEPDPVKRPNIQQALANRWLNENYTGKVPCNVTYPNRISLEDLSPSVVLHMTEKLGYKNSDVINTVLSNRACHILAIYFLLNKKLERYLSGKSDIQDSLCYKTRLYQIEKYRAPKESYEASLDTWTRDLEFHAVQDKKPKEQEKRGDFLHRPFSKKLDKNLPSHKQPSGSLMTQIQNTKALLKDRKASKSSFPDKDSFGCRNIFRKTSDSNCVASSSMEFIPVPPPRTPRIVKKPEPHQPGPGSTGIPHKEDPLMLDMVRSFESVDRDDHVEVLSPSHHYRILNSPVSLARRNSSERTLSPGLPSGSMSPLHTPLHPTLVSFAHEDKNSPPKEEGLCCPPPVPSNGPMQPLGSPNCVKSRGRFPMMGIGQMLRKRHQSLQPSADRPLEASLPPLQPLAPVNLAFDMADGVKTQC

KIT(V559D) = KIT(V559D) (Homo sapiens (Human), UniProt P10721, V559D); conditions: 10000 nM, read-out: Percent Control
LOK = LOK (Homo sapiens (Human), UniProt O94804); conditions: 10000 nM, read-out: Percent Control
MAP4K2 = MAP4K2 (Homo sapiens (Human), UniProt Q12851); conditions: MAP4K2, 10000 nM; read-out: Percent Control
MAP4K2, sequence (Q12851 whole entry): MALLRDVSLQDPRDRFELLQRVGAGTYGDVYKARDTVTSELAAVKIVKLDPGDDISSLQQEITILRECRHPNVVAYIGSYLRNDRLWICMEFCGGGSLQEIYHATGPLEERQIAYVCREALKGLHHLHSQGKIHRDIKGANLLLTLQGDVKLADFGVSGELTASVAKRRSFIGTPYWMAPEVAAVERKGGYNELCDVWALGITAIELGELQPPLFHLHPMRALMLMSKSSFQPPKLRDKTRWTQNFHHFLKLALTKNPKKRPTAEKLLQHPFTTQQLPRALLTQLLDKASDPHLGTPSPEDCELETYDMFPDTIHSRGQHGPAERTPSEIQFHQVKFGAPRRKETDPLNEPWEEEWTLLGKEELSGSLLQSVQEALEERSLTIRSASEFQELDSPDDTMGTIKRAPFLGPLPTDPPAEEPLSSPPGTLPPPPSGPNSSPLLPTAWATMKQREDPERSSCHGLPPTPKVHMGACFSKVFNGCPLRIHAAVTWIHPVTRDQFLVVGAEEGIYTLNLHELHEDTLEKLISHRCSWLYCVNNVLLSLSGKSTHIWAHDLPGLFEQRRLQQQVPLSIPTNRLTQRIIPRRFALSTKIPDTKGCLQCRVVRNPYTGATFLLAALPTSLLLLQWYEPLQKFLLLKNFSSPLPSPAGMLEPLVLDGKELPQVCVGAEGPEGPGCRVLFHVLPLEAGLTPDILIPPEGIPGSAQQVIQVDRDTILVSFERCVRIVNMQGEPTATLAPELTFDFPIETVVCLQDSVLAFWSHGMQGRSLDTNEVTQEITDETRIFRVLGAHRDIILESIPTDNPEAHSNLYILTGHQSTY

MAP4K4 = MAP4K4 (Homo sapiens (Human), UniProt O95819); conditions: MAP4K4, 10000 nM; read-out: Percent Control
MARK3 = MARK3 (Homo sapiens (Human), UniProt P27448); conditions: MARK3, 10000 nM; read-out: Percent Control
MEK4 = MEK4 (Homo sapiens (Human), UniProt P45985); conditions: MEK4, 10000 nM; read-out: Percent Control
MERTK = MERTK (Homo sapiens (Human), UniProt Q12866); conditions: 10000 nM, read-out: Percent Control
MYLK2 = MYLK2 (Homo sapiens (Human), UniProt Q9H1R3); conditions: MYLK2, 10000 nM; read-out: Percent Control
NDR2 = NDR2 (Homo sapiens (Human), UniProt Q9Y2H1); conditions: NDR2, 10000 nM; read-out: Percent Control
NEK1 = NEK1 (Homo sapiens (Human), UniProt Q96PY6); conditions: NEK1, 10000 nM; read-out: Percent Control
NEK11 = NEK11 (Homo sapiens (Human), UniProt Q8NG66); conditions: NEK11, 10000 nM; read-out: Percent Control
NEK11, sequence (Q8NG66 whole entry): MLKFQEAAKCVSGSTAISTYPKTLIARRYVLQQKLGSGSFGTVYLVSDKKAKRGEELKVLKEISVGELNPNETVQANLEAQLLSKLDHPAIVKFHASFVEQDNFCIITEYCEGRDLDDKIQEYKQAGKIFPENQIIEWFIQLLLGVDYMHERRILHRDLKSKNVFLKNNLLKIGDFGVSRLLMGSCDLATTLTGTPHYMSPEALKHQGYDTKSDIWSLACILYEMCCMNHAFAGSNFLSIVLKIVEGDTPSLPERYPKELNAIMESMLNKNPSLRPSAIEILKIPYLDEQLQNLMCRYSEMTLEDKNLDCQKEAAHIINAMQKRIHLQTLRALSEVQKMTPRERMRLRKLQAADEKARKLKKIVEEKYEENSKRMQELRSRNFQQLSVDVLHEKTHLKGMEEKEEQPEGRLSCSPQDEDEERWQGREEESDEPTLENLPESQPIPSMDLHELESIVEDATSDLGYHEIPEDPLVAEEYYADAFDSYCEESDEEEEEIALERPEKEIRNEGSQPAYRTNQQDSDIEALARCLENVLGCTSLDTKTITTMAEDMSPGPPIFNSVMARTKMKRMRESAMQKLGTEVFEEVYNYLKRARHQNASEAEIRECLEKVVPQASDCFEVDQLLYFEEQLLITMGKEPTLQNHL

NLK = NLK (Homo sapiens (Human), UniProt Q9UBE8); conditions: 10000 nM, read-out: Percent Control
PCTK2 = PCTK2 (Homo sapiens (Human), UniProt Q00537); conditions: PCTK2, 10000 nM; read-out: Percent Control
PCTK2, sequence (Q00537 whole entry): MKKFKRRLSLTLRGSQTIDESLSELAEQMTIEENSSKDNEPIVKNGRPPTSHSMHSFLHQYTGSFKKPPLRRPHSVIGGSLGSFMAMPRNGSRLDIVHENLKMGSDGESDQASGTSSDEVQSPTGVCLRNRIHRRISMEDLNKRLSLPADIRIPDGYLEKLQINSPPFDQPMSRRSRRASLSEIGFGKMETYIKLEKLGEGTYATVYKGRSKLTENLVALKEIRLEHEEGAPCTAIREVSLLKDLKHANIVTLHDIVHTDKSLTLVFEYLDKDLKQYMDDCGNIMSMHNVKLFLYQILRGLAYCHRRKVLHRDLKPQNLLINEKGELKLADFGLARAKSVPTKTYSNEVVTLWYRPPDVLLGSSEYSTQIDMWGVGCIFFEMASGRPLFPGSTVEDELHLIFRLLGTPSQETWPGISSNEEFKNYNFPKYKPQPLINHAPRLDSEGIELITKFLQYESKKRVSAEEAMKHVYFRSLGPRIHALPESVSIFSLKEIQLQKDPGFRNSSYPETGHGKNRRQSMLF

PIK3CG = PIK3CG (Homo sapiens (Human), UniProt P48736); conditions: 10000 nM, read-out: Percent Control
PIKFYVE = PIKFYVE (Homo sapiens (Human), UniProt Q9Y2I7); conditions: 10000 nM, read-out: Percent Control
PKNB(M. tuberculosis) = PKNB(M. tuberculosis) (Mycobacterium tuberculosis (strain ATCC 25618 / H37Rv), UniProt P9WI81); conditions: read-out: Percent Control
PRKD2 = PRKD2 (Homo sapiens (Human), UniProt Q9BZL6); conditions: PRKD2, 10000 nM; read-out: Percent Control
PRKX = PRKX (Homo sapiens (Human), UniProt P51817); conditions: 10000 nM, read-out: Percent Control
QSK = QSK (Homo sapiens (Human), UniProt Q9Y2K2); conditions: 10000 nM, read-out: Percent Control
RET(V804L) = RET(V804L) (Homo sapiens (Human), UniProt P07949, V804L); conditions: 10000 nM, read-out: Percent Control
STK36 = STK36 (Homo sapiens (Human), UniProt Q9NRP7); conditions: STK36, 10000 nM; read-out: Percent Control
TGFBR2 = TGFBR2 (Homo sapiens (Human), UniProt P37173); conditions: TGFBR2, 10000 nM; read-out: Percent Control
ULK1 = ULK1 (Homo sapiens (Human), UniProt O75385); conditions: ULK1, 10000 nM; read-out: Percent Control
ULK2 = ULK2 (Homo sapiens (Human), UniProt Q8IYT8); conditions: ULK2, 10000 nM; read-out: Percent Control
VRK2 = VRK2 (Homo sapiens (Human), UniProt Q86Y07); conditions: VRK2, 10000 nM; read-out: Percent Control

| SMILES | remaining binding at 10 µM (ABL1-nonphosphorylated) [%] | remaining binding at 10 µM (ADCK4) [%] | remaining binding at 10 µM (AKT2) [%] | remaining binding at 10 µM (BRSK2) [%] | remaining binding at 10 µM (CLK1) [%] | remaining binding at 10 µM (CSNK1G2) [%] | remaining binding at 10 µM [1] [%] | remaining binding at 10 µM (GSK3B) [%] | remaining binding at 10 µM (HUNK) [%] | remaining binding at 10 µM (KIT(V559D)) [%] | remaining binding at 10 µM (LOK) [%] | remaining binding at 10 µM (MAP4K2) [%] | remaining binding at 10 µM (MAP4K4) [%] | remaining binding at 10 µM (MARK3) [%] | remaining binding at 10 µM (MEK4) [%] | remaining binding at 10 µM (MERTK) [%] | remaining binding at 10 µM (MYLK2) [%] | remaining binding at 10 µM (NDR2) [%] | remaining binding at 10 µM (NEK1) [%] | remaining binding at 10 µM (NEK11) [%] | also measured |
| --- | --- | --- | --- | --- | --- | --- | --- | --- | --- | --- | --- | --- | --- | --- | --- | --- | --- | --- | --- | --- | --- |
| COc1cc(N2CCC(N3CCN(C)CC3)CC2)ccc1Nc1ncc2c(n1)N(C)c1sc(C)nc1C(=O)N2 [Compound 3, 6-((2-methoxy-4-(4-(4-methylpiperazin-1-yl)piperidin-1-yl)phenyl)amino)-2,4-dimethyl-4,9-dihydro-10H-pyrimido[5,4-b]thiazolo[5,4-e][1,4]diazepin-10-one] | 25 | 83 | 75 | 78 | 90 | 81 | 99 | 95 | 95 | 56 | 84 | 100 | 79 | 96 | 100 | 93 | 84 | 86 | 78 | 100 | remaining binding at 10 µM (NLK): 59%; remaining binding at 10 µM (PCTK2): 76%; remaining binding at 10 µM (PIK3CG): 93%; remaining binding at 10 µM (PIKFYVE): 98%; remaining binding at 10 µM (PKNB(M. tuberculosis)): 91%; remaining binding at 10 µM (PRKD2): 72%; remaining binding at 10 µM (PRKX): 96%; remaining binding at 10 µM (QSK): 100%; remaining binding at 10 µM (RET(V804L)): 95%; remaining binding at 10 µM (STK36): 61%; remaining binding at 10 µM (TGFBR2): 96%; remaining binding at 10 µM (ULK1): 100%; remaining binding at 10 µM (ULK2): 100%; remaining binding at 10 µM (VRK2): 91% |
| COc1cc(N2CCC(N3CCN(C)CC3)CC2)ccc1Nc1ncc2c(n1)N(C)c1sc(C)nc1C(=O)N2C [Compound 5, 6-((2-methoxy-4-(4-(4-methylpiperazin-1-yl)piperidin-1-yl)phenyl)amino)-2,4,9-trimethyl-4,9-dihydro-10H-pyrimido[5,4-b]thiazolo[5,4-e][1,4]diazepin-10-one] | 77 | 73 | 100 | 91 | 100 | 80 | 91 | 99 | 97 | 100 | 99 | 94 | 100 | 81 | 100 | 100 | 97 | 64 | 97 | 100 | remaining binding at 10 µM (NLK): 93%; remaining binding at 10 µM (PCTK2): 100%; remaining binding at 10 µM (PIK3CG): 88%; remaining binding at 10 µM (PIKFYVE): 60%; remaining binding at 10 µM (PKNB(M. tuberculosis); PKNB(M. tuberculosis), 10000 nM): 98%; remaining binding at 10 µM (PRKD2): 46%; remaining binding at 10 µM (PRKX): 99%; remaining binding at 10 µM (QSK): 94%; remaining binding at 10 µM (RET(V804L)): 93%; remaining binding at 10 µM (STK36): 100%; remaining binding at 10 µM (TGFBR2): 98%; remaining binding at 10 µM (ULK1): 98%; remaining binding at 10 µM (ULK2): 81%; remaining binding at 10 µM (VRK2): 97% |
